Measured values reported in ChEMBL document CHEMBL5346923, “Novel pyridinium cationic pleuromutilin analogues overcoming bacterial multidrug resistance” (Eur J Med Chem, 2023).
The source made the active and inactive calls. The calls are words filed in the database; no cut-off is given here.

Tests used:
Streptococcus parasuis [1] = assay: Antibacterial activity against clinical isolate Streptococcus parasuis harbouring optrA gene assessed as inhibition of bacterial growth measured after 24 hrs by MH broth based assay; assay type: functional
Escherichia coli [2] = assay: Antibacterial activity against clinical isolate Escherichia coli harbouring NDM-17 gene assessed as inhibition of bacterial growth measured after 24 hrs by MH broth based assay; assay type: functional
[3] = Toxicity in po dosed BABL/C mouse assessed as lethal dose measured upto 14 days; assay type: organism-based; settings: in vivo, time < 14 day
Staphylococcus aureus [4] = assay: Potency index, ratio of tiamulin MIC to compound […] for antibacterial activity against clinical isolate multi-drug resistant Staphylococcus aureus sal; assay type: functional
Staphylococcus aureus [5] = assay: Antibacterial activity against Staphylococcus aureus ATCC 29213 assessed as induction of bacterial fragmentation at 1 times of MIC by SEM analysis; assay type: functional, organism-based
Staphylococcus aureus [6] = assay: Antibacterial activity against clinical isolate Staphylococcus aureus harbouring cfr and erm C gene assessed as inhibition of bacterial growth measured after 24 hrs by MH broth based assay; assay type: functional
Staphylococcus aureus [7] = assay: Antibacterial activity against multi-drug resistant Staphylococcus aureus sa1 infected in BABL/C mouse assessed as reduction in bacterial load in lungs at 20 mg/kg, ip measured after 2 days; assay type: functional; settings: time 2 day
Staphylococcus aureus [8] = assay: Antibacterial activity against methicillin-resistant Staphylococcus aureus ATCC 43300 assessed as inhibition of bacterial growth measured after 24 hrs by MH broth based assay; assay type: functional
[9] = system: Streptococcus hyovaginalis; assay: Antibacterial activity against clinical isolate Streptococcus hyovaginalis harbouring IsaE and optrA gene assessed as inhibition of bacterial growth measured after 24 hrs by MH broth based assay; assay type: functional
Streptococcus parasuis [10] = assay: Antibacterial activity against clinical isolate Streptococcus parasuis harbouring InuD gene assessed as inhibition of bacterial growth measured after 24 hrs by MH broth based assay; assay type: functional
Staphylococcus aureus [11] = assay: Antibacterial activity against methicillin-resistant Staphylococcus aureus ATCC 43300 assessed as reduction in log10 CFU at 3 times of MIC measured after 8 hrs by time-kill assay; assay type: functional
Staphylococcus aureus [12] = assay: Antibacterial activity against clinical isolate Staphylococcus aureus harbouring blaZ gene assessed as inhibition of bacterial growth measured after 24 hrs by MH broth based assay; assay type: functional
Cell membrane [13] = assay: Disruption of membrane integrity in Staphylococcus aureus ATCC 29213 at 1 to 6 times of MIC by DAPI/propidium iodide staining based fluorescence microscopic analysis; assay type: subcellular
[14] = system: Streptococcus hyovaginalis; assay: Antibacterial activity against clinical isolate Streptococcus hyovaginalis harbouring ErmB and tetO gene assessed as inhibition of bacterial growth measured after 24 hrs by MH broth based assay; assay type: functional
Staphylococcus aureus [15] = assay: Antibacterial activity against clinical isolate Staphylococcus aureus harbouring ArlS, norA and MgrA gene assessed as inhibition of bacterial growth measured after 24 hrs by MH broth based assay; assay type: functional
Staphylococcus aureus [16] = assay: Antibacterial activity against clinical isolate Staphylococcus aureus harbouring IsaA, cfr and erm A gene assessed as inhibition of bacterial growth measured after 24 hrs by MH broth based assay; assay type: functional
Klebsiella pneumoniae [17] = assay: Antibacterial activity against Klebsiella pneumonia CMCC (B) 46117 assessed as inhibition of bacterial growth measured after 24 hrs by MH broth based assay; assay type: functional
Staphylococcus aureus [18] = assay: Antibacterial activity against 2 times of MIC treated methicillin-resistant Staphylococcus aureus […] assessed as post-antibiotic sub-MIC effect by measuring time required for increase in log10 CFU/ml of bacteria at 0.25 to 0.5 times of MIC incubated for 1 hr by MH broth based assay; assay type: functional
Staphylococcus aureus [19] = assay: Antibacterial activity against Staphylococcus aureus ATCC 29213 assessed as inhibition of bacterial GFP expression at 1 to 4 times of MIC incubated for 1 hr by fluorescence microscopic analysis; assay type: functional, organism-based
Staphylococcus aureus [20] = assay: Antibacterial activity against compound-resistant/methicillin-resistant Staphylococcus aureus assessed as inhibition of bacterial growth; assay type: functional
HepG2 = assay: Cytotoxicity against human HepG2 cells assessed as reduction in cell viability at 7.5 to 1000 ug/ml incubated for 6 hrs by CCK-8 assay; assay type: toxicity, cell-based; settings: hepg2, 6 h, dose 7.5-1000 µg/ml
Cell membrane [21] = assay: Disruption of membrane integrity in Staphylococcus aureus ATCC 29213 assessed as induction of cell membrane perforation at 1 to 4 ug/ml incubated for 60 mins by ONPG reagent based analysis; assay type: subcellular; settings: dose 1-4 µg/ml
Staphylococcus aureus [22] = assay: Antibacterial activity against Staphylococcus aureus ATCC 29213 assessed as inhibition of bacterial division at 4 times of MIC by SEM analysis; assay type: functional, organism-based
Escherichia coli [23] = assay: Antibacterial activity against Escherichia coli ATCC 25922 assessed as inhibition of bacterial growth measured after 24 hrs by MH broth based assay; assay type: functional
Staphylococcus aureus [24] = assay: Antibacterial activity against Staphylococcus aureus ATCC 29213 assessed as inhibition of bacterial growth measured after 24 hrs by MH broth based assay; assay type: functional
Klebsiella pneumoniae [25] = assay: Antibacterial activity against clinical isolate Klebsiella pneumoniae harbouring mcr-8 gene assessed as inhibition of bacterial growth measured after 24 hrs by MH broth based assay; assay type: functional
Staphylococcus aureus [26] = assay: Antibacterial activity against methicillin-resistant Staphylococcus aureus assessed as resistance development by measuring fold increase in MIC measured after 24 days; assay type: functional; settings: time 24 day
Escherichia coli [27] = assay: Antibacterial activity against Escherichia coli MG1655 harbouring acrB gene assessed as inhibition of bacterial growth measured after 24 hrs by MH broth based assay; assay type: functional
Enterococcus lactis = assay: Antibacterial activity against clinical isolate Enterococcus lactis assessed as inhibition of bacterial growth measured after 24 hrs by MH broth based assay; assay type: functional
Staphylococcus aureus [28] = assay: Antibacterial activity against methicillin-resistant Staphylococcus aureus […] assessed as post antibacterial effect by measuring time required for increase in log10 CFU/ml of bacteria at 4 times of MIC incubated for 1 hr by MH broth based assay; assay type: functional
Staphylococcus aureus [29] = assay: Antibacterial activity against 2 times of MIC treated methicillin-resistant Staphylococcus aureus […] assessed as post-antibiotic sub-MIC effect by measuring time required for increase in log10 CFU/ml of bacteria at 0.5 times of MIC incubated for 1 hr by MH broth based assay; assay type: functional
Staphylococcus aureus [30] = assay: Antibacterial activity against clinical isolate Staphylococcus aureus harbouring erm C gene assessed as inhibition of bacterial growth measured after 24 hrs by MH broth based assay; assay type: functional
[31] = Toxicity in BABL/C mouse assessed as survival rate at 631 mg/kg, po measured upto 14 days; assay type: organism-based; settings: in vivo, time < 14 day
Enterococcus hirae = assay: Antibacterial activity against clinical isolate Enterococcus hirae assessed as inhibition of bacterial growth measured after 24 hrs by MH broth based assay; assay type: functional
Staphylococcus aureus [32] = assay: Antibacterial activity against methicillin-resistant Staphylococcus aureus ATCC 43300 assessed as reduction in log10 CFU at 6 times of MIC measured after 8 hrs by time-kill assay; assay type: functional
Staphylococcus aureus [33] = assay: Antibacterial activity against multi-drug resistant Staphylococcus aureus sa1 infected in BABL/C mouse assessed as reduction in bacterial load in lungs at 40 mg/kg, ip measured after 2 days; assay type: functional; settings: time 2 day
Staphylococcus aureus [34] = assay: Antibacterial activity against clinical isolate multi-drug resistant Staphylococcus aureus sal assessed as reduction in log10 CFU at 6 times of MIC measured after 8 hrs by time-kill assay; assay type: functional
Staphylococcus aureus [35] = assay: Antibacterial activity against tiamulin-resistant/methicillin-resistant Staphylococcus aureus assessed as inhibition of bacterial growth; assay type: functional
Aerococcus viridans = assay: Antibacterial activity against clinical isolate Aerococcus viridans harbouring optrA and ErmA gene assessed as inhibition of bacterial growth measured after 24 hrs by MH broth based assay; assay type: functional

SMILES: C=C[C@]1(C)C[C@@H](OC(=O)CSc2cc[n+](CCCCCCC)cc2)[C@]2(C)[C@H](C)CC[C@]3(CCC(=O)[C@H]32)[C@@H](C)[C@@H]1O.[I-]
- MIC (Streptococcus parasuis [1]): 16 µg/mL
- MIC (Escherichia coli [2]): 16 µg/mL
- LD50 at 336 h [3]: 879 mg/kg
- Ratio (Staphylococcus aureus [4]): 96
- Activity (Staphylococcus aureus [5]): Active
- MIC (Staphylococcus aureus [6]): 8 µg/mL
- Activity (Staphylococcus aureus [7]): 3.29 log10CFU/ml
- MIC (Staphylococcus aureus [8]): 0.063 µg/mL
- MIC [9]: 32 µg/mL
- MIC (Streptococcus parasuis [10]): 16 µg/mL
- Activity (Staphylococcus aureus [11]): 2 log10CFU/ml
- MIC (Staphylococcus aureus [12]): 0.063 µg/mL
- Activity (Cell membrane [13]): Active
- MIC [14]: 32 µg/mL
- MIC (Staphylococcus aureus [15]): 0.063 µg/mL
- MIC (Staphylococcus aureus [16]): 4 µg/mL
- MIC (Klebsiella pneumoniae [17]): 2 µg/mL
- Time (Staphylococcus aureus [18]): 2.62 h
- Activity (Staphylococcus aureus [19]): Active
- MIC (Staphylococcus aureus [20]): 0.5 µg/mL
- Activity (HepG2): Non-Toxic
- Activity (Cell membrane [21]): Active
- Activity (Staphylococcus aureus [22]): Active
- MIC (Escherichia coli [23]): 32 µg/mL
- MIC (Staphylococcus aureus [24]): 0.063 µg/mL
- MIC (Klebsiella pneumoniae [25]): 2 µg/mL
- fold change (FC) (Staphylococcus aureus [26]): 8
- MIC (Escherichia coli [27]): 0.5 µg/mL
- MIC (Enterococcus lactis): 32 µg/mL
- Time (Staphylococcus aureus [28]): 2.56 h
- Time (Staphylococcus aureus [29]): ~2.7 h
- MIC (Staphylococcus aureus [30]): 2 µg/mL
- survival at 336 h [31]: 80%
- MIC (Enterococcus hirae): 0.25 µg/mL
- Activity (Staphylococcus aureus [32]): 2 log10CFU/ml
- Activity (Staphylococcus aureus [33]): 4.17 log10CFU/ml
- Activity (Staphylococcus aureus [34]): 2 log10CFU/ml
- MIC (Staphylococcus aureus [35]): 0.5 µg/mL
- MIC (Aerococcus viridans): 2 µg/mL
